Where “and” joins values, the source holds several entries; their conditions need not be identical. Equal entries are not always repeated. Entries after “also recorded” stand apart in the source; their conditions may differ. Where two headings read alike, the source gives them in different places.
How the values were obtained:
[1] = test system: TNF-α; type: cell-based, mouse
[2] = test system: IL-6; type: cell-based, mouse
[3] = test system: CXCL-1/KC; type: cell-based, mouse
[4] = test system: IL-1β
[5] = test system: IL-1α; settings: 17ya 40 nM, Dex 10 nM; for IL-1α, replicate 1 / IL-1α, replicate 2 / IL-1α, replicate 3: mouse spleen cells, LPS 5 μg/ml
[6] = test system: TNF-α; experiment: Splenocyte model, flow cytometry of TNF-α expressing cells after LPS; type: cell-based, mouse; settings: 200 nM, 2 hrs preincubation, LPS 5 μg/mL 20 hrs; LPS alone 6.48%, unstimulated 1.03%
Procedure: Briefly, cells were washed two times with FACS (PBS containing 1% serum FBS) staining buffer and fully re-suspended in Cyto-Fast Fix/Perm Buffer for 20 min. Then the cells were washed again for two times with Cyto-Fast Perm wash solution and subsequently stained with recommended dilutions of intracellular antibodies for 30 min at room temperature in the dark. After staining, the cells were washed twice in FACS staining buffer, before they were resuspended in FACS staining buffer and analyzed using a NovoCyte flow cytometer (Agilent, Santa Clara, CA). […] FIG. 2E illustrates the flow cytometry of splenocytes incubated with LPS and Colchicine (200 nM).

[7] = test system: IL-1β; experiment: ELISA assay to determine IL-1β in PMA-differentiated THP-1 cells stimulated by nigericin; type: cell-based, human; settings: 17ya 40 nM-5 μM, colchicine 1-10 μM, 1 hr, nigericin 20 μM 1 hr
Procedure: Concentrations of IL-1β in culture supernatant. […] IL-1β level was assessed by enzyme-linked immunosorbent assay (ELISA) kit for human IL-1β (R&D systems) (****P<0.0001, Ordinary one-way ANOVA, Prism 9).

[8] = adjusted data (control average subtracted), mouse spleen cells, LPS 5 μg/ml, 17ya 40 nM, Dex 10 nM
[9] = raw data, mouse spleen cells, LPS 5 μg/ml, 17ya 40 nM, Dex 10 nM
[10] = adjusted data (control average subtracted)

Which results are given for `C[C@@H]1C[C@H]2[C@@H]3CCC4=CC(=O)C=C[C@]4(C)[C@@]3(F)[C@@H](O)C[C@]2(C)[C@@]1(O)C(=O)CO` [Dex, dexamethasone]?
TNF-α, Average [1]: 32.414 and 33.60; TNF-α, replicate 1 [1]: 34.2933 and 35.478; TNF-α, replicate 2 [1]: 31.309 and 32.494; TNF-α, replicate 3 [1]: 31.640 and 32.825; average cytokine suppression, TNF-α [1]: 79%; IL-6, replicate 1 [2]: 99.55 and 17.594; IL-6, replicate 2 [2]: 73.64 and −8.316; IL-6, replicate 3 [2]: 72.76 and −9.196; average cytokine suppression, IL-6 [2]: 100%; CXCL-1/KC, Average [3]: 136.043 and 253.688; CXCL-1/KC, replicate 1 [3]: 133.410 and 251.054; CXCL-1/KC, replicate 2 [3]: 132.285 and 249.929; CXCL-1/KC, replicate 3 [3]: 142.436 and 260.08; average cytokine suppression, KC [3]: 59%; IL-1β, replicate 2 [4]: 4.382; average cytokine suppression, IL-1β ([4]; LPS-stimulated mouse spleen cells, 17ya 40 nM, Dex 10 nM): 110%; IL-1β, replicate 1 [4, 8]: −1.904; IL-1β, replicate 2 [4, 8]: −2.334; IL-1β, replicate 1 [4, 9]: 4.812; IL-1β, replicate 3 [4, 9]: 3.956; average cytokine suppression, IL-1α ([5]; LPS-stimulated mouse spleen cells): 106%; IL-1α, replicate 1 [5, 10]: −10.371; IL-1α, replicate 2 [5, 10]: −2.519; IL-1α, replicate 3 [5, 10]: 3.688; IL-1α, replicate 1 ([5]; raw data): 22.962; IL-1α, replicate 2 ([5]; raw data): 30.814; IL-1α, replicate 3 ([5]; raw data): 37.012

`COc1cc2c(c(OC)c1OC)-c1ccc(OC)c(=O)cc1[C@@H](NC(C)=O)CC2` [colchicine] was tested. Which “spleen cells expressing TNF-α” value [6] did it give?
Its value is 3.30%.

And the “IL-1β secretion in response to nigericin stimulation” value [7]?
Its value is “dose-dependently (partially) suppressed the IL-1β levels; also recorded: significantly suppressed IL-1β secretion”.

Source: patent US12728114B2, “Methods of treating inflammation” (VERU INC., priority 2021, dated 2026)
